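Five concentrations, 48 hours, 96-well plates. GI50: concentration for 50% inhibition of growth.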 Active and inactive are the calls of the source. Cut-off read from the data, not from the text of the source: active = GI50 up to about 1.1 µM and inactive = higher.
Experiments:
Experiment in all cases: NCI anticancer screen, dose series, 48 h
MCF7 = system: MCF7
CCRF-CEM = system: CCRF-CEM
SN12C = system: SN12C
K562 = system: K562
HOP-62 = system: HOP-62
LOX IMVI = system: LOX IMVI
COLO 205 = system: COLO 205
OVCAR-3 = system: OVCAR-3
HT-29 = system: HT-29
HL-60 = system: HL-60
NCI-H23 = system: NCI-H23
OVCAR-5 = system: OVCAR-5
SNB-19 = system: SNB-19
KM12 = system: KM12
NCI-H460 = system: NCI-H460
OVCAR-8 = system: OVCAR-8
SW-620 = system: SW-620
BT-549 = system: BT-549
SK-MEL-2 = system: SK-MEL-2

Compound | GI50 (MCF7) | GI50 (CCRF-CEM) | GI50 (SN12C) | GI50 (K562) | GI50 (HOP-62) | GI50 (LOX IMVI) | GI50 (COLO 205) | GI50 (OVCAR-3) | GI50 (HT-29) | GI50 (HL-60) | GI50 (NCI-H23) | GI50 (OVCAR-5) | GI50 (SNB-19) | GI50 (KM12) | GI50 (NCI-H460) | GI50 (OVCAR-8) | GI50 (SW-620) | GI50 (BT-549) | GI50 (SK-MEL-2)
Cc1nc2c(N3CCCC3)nc(N3CCNCC3)nc2nc1NCc1ccccc1 | 2.33 µM (inactive) | 2.4 µM (inactive) | 7.29 µM (inactive) | 2.81 µM (inactive) | 2.94 µM (inactive) | 1.65 µM (inactive) | 1.24 µM (inactive) | 2.43 µM (inactive) | 2.41 µM (inactive) | 3.61 µM (inactive) | 8.85 µM (inactive) | 13 µM (inactive) | 5.66 µM (inactive) | 2.84 µM (inactive) | 3.56 µM (inactive) | 3.37 µM (inactive) | 2.36 µM (inactive) | 2.4 µM (inactive) | 4.98 µM (inactive)
COc1ccc(/N=C2\C(=O)C3=C(OC(C)(C)CC3)c3ccccc32)cc1 | 0.9 µM (active) | 1.48 µM (inactive) | 0.889 µM (active) | 0.612 µM (active) | 0.91 µM (active) | 0.481 µM (active) | 2.93 µM (inactive) | 0.361 µM (active) | 0.741 µM (active) | 0.592 µM (active) | 1.31 µM (inactive) | 2.82 µM (inactive) | 0.916 µM (active) | 0.968 µM (active) | 1.5 µM (inactive) | 0.43 µM (active) | 0.873 µM (active) | 1.1 µM (active) | 1.16 µM (inactive)
COc1ccc(/C(=N/N=c2[nH]c3ccccc3[nH]2)C(=O)O)cc1 | > 100 µM (inactive) | > 100 µM (inactive) | > 100 µM (inactive) | > 100 µM (inactive) | > 100 µM (inactive) | > 100 µM (inactive) | > 100 µM (inactive) | > 100 µM (inactive) | > 100 µM (inactive) | > 100 µM (inactive) | > 100 µM (inactive) | > 100 µM (inactive) | > 100 µM (inactive) | > 100 µM (inactive) | > 100 µM (inactive) | > 100 µM (inactive) | > 100 µM (inactive) | > 100 µM (inactive) | > 100 µM (inactive)
CN1C(=O)[C@@]2(C=CC3(CC2)OCCO3)c2ccccc21 | 48.5 µM (inactive) | > 50 µM (inactive) | > 50 µM (inactive) | > 50 µM (inactive) | > 32.1 µM (inactive) | > 50 µM (inactive) | > 50 µM (inactive) | > 50 µM (inactive) | > 50 µM (inactive) | 35.7 µM (inactive) | 21.8 µM (inactive) | > 50 µM (inactive) | > 50 µM (inactive) | > 37.5 µM (inactive) | > 50 µM (inactive) | > 50 µM (inactive) | > 50 µM (inactive) | > 50 µM (inactive) | > 50 µM (inactive)
O=C(O)C1C(C(=O)O)C2C(=O)C=CC1N2Cc1ccccc1 (stereo unspecified) | 4.63 µM (inactive) | 0.383 µM (active) | 1.84 µM (inactive) | 6.67 µM (inactive) | 2.59 µM (inactive) | 3.4 µM (inactive) | 6.98 µM (inactive) | 2.87 µM (inactive) | 3.12 µM (inactive) | 1.77 µM (inactive) | 2.27 µM (inactive) | 6.22 µM (inactive) | 5.55 µM (inactive) | 3.61 µM (inactive) | 1.98 µM (inactive) | 4.16 µM (inactive) | 2.65 µM (inactive) | 4.57 µM (inactive) | 8.51 µM (inactive)
O=C(O)C1CCCN1Cc1c[nH]c2ccccc12 (stereo unspecified) | > 100 µM (inactive) | > 100 µM (inactive) | > 100 µM (inactive) | > 100 µM (inactive) | > 100 µM (inactive) | > 100 µM (inactive) | > 100 µM (inactive) | > 100 µM (inactive) | > 100 µM (inactive) | > 100 µM (inactive) | > 100 µM (inactive) | > 100 µM (inactive) | > 100 µM (inactive) | > 100 µM (inactive) | > 100 µM (inactive) | > 100 µM (inactive) | > 100 µM (inactive) | > 100 µM (inactive) | > 100 µM (inactive)
O=C(/C=C/c1cc2ccccc2o1)N1CCN(c2ccccn2)CC1 | 57.5 µM (inactive) | > 100 µM (inactive) | > 100 µM (inactive) | > 100 µM (inactive) | 97.9 µM (inactive) | > 100 µM (inactive) | 85.7 µM (inactive) | 62.7 µM (inactive) | 68.7 µM (inactive) | 40.7 µM (inactive) | > 100 µM (inactive) | > 100 µM (inactive) | > 100 µM (inactive) | 87.5 µM (inactive) | 91.6 µM (inactive) | > 100 µM (inactive) | > 100 µM (inactive) | > 100 µM (inactive) | > 100 µM (inactive)
CCN(CC)/[N+]([O-])=N/OCOC(C)=O | > 100 µM (inactive) | 94.4 µM (inactive) | > 100 µM (inactive) | > 100 µM (inactive) | > 100 µM (inactive) | > 100 µM (inactive) | > 100 µM (inactive) | > 100 µM (inactive) | > 100 µM (inactive) | 65.9 µM (inactive) | > 100 µM (inactive) | > 100 µM (inactive) | > 100 µM (inactive) | > 100 µM (inactive) | > 100 µM (inactive) | > 100 µM (inactive) | > 100 µM (inactive) | > 100 µM (inactive) | > 100 µM (inactive)
COC1C=COC2(C)Oc3c(C)c(O)c4c(O)c(c(C5SCCS5)c(O)c4c3C2=O)NC(=O)C(C)=C/C=C\C(C)C2OC(C)(C)OC(C2C)C(C)C(OC(C)=O)C1C (stereo unspecified) | 2.92 µM (inactive) | 5.86 µM (inactive) | 4.3 µM (inactive) | 4.09 µM (inactive) | 12.2 µM (inactive) | 5.31 µM (inactive) | 3.38 µM (inactive) | 4.78 µM (inactive) | – | 5.53 µM (inactive) | 6.44 µM (inactive) | 24.3 µM (inactive) | 16.4 µM (inactive) | 6.04 µM (inactive) | 4.21 µM (inactive) | 5.15 µM (inactive) | 7 µM (inactive) | 3.73 µM (inactive) | 5.79 µM (inactive)
CC(=O)O[C@H]1C(=O)[C@@]2(C)[C@H]([C@H](OC(=O)c3ccccc3)[C@]3(O)C[C@H](OC(=O)[C@H](O)[C@@H](NC(=O)c4ccccc4)C4CCCCC4)C(C)=C1C3(C)C)[C@]1(OC(C)=O)CO[C@@H]1C[C@@H]2O | < 0.01 µM (active) | < 0.01 µM (active) | – | < 0.01 µM (active) | < 0.01 µM (active) | < 0.01 µM (active) | < 0.01 µM (active) | < 0.01 µM (active) | < 0.01 µM (active) | < 0.01 µM (active) | < 0.01 µM (active) | < 0.01 µM (active) | 0.013 µM (active) | < 0.01 µM (active) | < 0.01 µM (active) | < 0.01 µM (active) | < 0.01 µM (active) | 0.0143 µM (active) | 17.3 µM (inactive)
COC(=O)C1CC2(CCC1=O)Cc1ccccc1C2=O (stereo unspecified) | > 100 µM (inactive) | 50.4 µM (inactive) | > 100 µM (inactive) | 42.3 µM (inactive) | > 100 µM (inactive) | > 100 µM (inactive) | > 100 µM (inactive) | – | > 100 µM (inactive) | > 100 µM (inactive) | > 100 µM (inactive) | > 100 µM (inactive) | > 100 µM (inactive) | > 100 µM (inactive) | > 100 µM (inactive) | > 100 µM (inactive) | > 100 µM (inactive) | > 100 µM (inactive) | > 100 µM (inactive)

From ChEMBL document CHEMBL1201862, “PubChem BioAssay data set” (2004)
